Laboratory results taken from ChEMBL document CHEMBL1201862, “PubChem BioAssay data set” (2004).
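How tested: cells in 96-well plates exposed to compound for 48 hours at five concentrations. The concentration for 50% growth inhibition is given as GI50.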 Activity calls are given as the source filed them. No stated cut-off is given here; in the data, active = GI50 up to about 1.1 µM and inactive = higher.

Key:
Experiment in all cases: DTP human tumour cell line panel, 48 h
786-0 = tested on: 786-0
DU-145 = tested on: DU-145
EKVX = tested on: EKVX
HCT-116 = tested on: HCT-116
HCT-15 = tested on: HCT-15
HT-29 = tested on: HT-29
KM12 = tested on: KM12
MDA-MB-231 = tested on: MDA-MB-231
MOLT-4 = tested on: MOLT-4
NCI/ADR-RES = tested on: NCI/ADR-RES
OVCAR-4 = tested on: OVCAR-4
SF-268 = tested on: SF-268
SF-295 = tested on: SF-295
SF-539 = tested on: SF-539
SK-MEL-5 = tested on: SK-MEL-5
SK-OV-3 = tested on: SK-OV-3
SR = tested on: SR
TK-10 = tested on: TK-10
UACC-62 = tested on: UACC-62

SMILES | GI50 (786-0) | GI50 (DU-145) | GI50 (EKVX) | GI50 (HCT-116) | GI50 (HCT-15) | GI50 (HT-29) | GI50 (KM12) | GI50 (MDA-MB-231) | GI50 (MOLT-4) | GI50 (NCI/ADR-RES) | GI50 (OVCAR-4) | GI50 (SF-268) | GI50 (SF-295) | GI50 (SF-539) | GI50 (SK-MEL-5) | GI50 (SK-OV-3) | GI50 (SR) | GI50 (TK-10) | GI50 (UACC-62)
O=[N+]([O-])c1ccc(-n2nc3ccc4c(no[n+]4[O-])c3n2)cc1 | > 100 µM (inactive) | 35.4 µM (inactive) | 24.8 µM (inactive) | > 100 µM (inactive) | > 100 µM | > 100 µM (inactive) | > 100 µM (inactive) | > 100 µM (inactive) | 74.6 µM (inactive) | > 100 µM (inactive) | > 100 µM (inactive) | > 100 µM (inactive) | > 100 µM (inactive) | > 100 µM (inactive) | 80.2 µM (inactive) | > 100 µM (inactive) | > 100 µM (inactive) | > 100 µM (inactive) | 88.3 µM (inactive)
O=C(O)c1ccc(NCc2nc3cc4ccccc4cc3[nH]2)cc1 | > 100 µM (inactive) | > 100 µM (inactive) | > 100 µM (inactive) | > 100 µM (inactive) | 26.7 µM | > 100 µM (inactive) | > 100 µM (inactive) | > 100 µM (inactive) | > 100 µM (inactive) | > 100 µM (inactive) | > 90.4 µM (inactive) | > 100 µM (inactive) | > 100 µM (inactive) | > 100 µM (inactive) | > 21.4 µM (inactive) | > 100 µM (inactive) | > 100 µM (inactive) | > 100 µM (inactive) | > 100 µM (inactive)
O=C(O)/C=C\C(=O)Nc1ccc2c(c1)C(=O)c1cc(F)ccc1-2 | > 100 µM (inactive) | > 100 µM (inactive) | > 100 µM (inactive) | > 100 µM (inactive) | > 100 µM | > 100 µM (inactive) | > 100 µM (inactive) | > 100 µM (inactive) | > 100 µM (inactive) | > 100 µM (inactive) | > 100 µM (inactive) | > 100 µM (inactive) | > 100 µM (inactive) | > 100 µM (inactive) | > 100 µM (inactive) | > 100 µM (inactive) | > 100 µM (inactive) | > 100 µM (inactive) | > 100 µM (inactive)
ClCCCSSCCCCl | 30.2 µM (inactive) | 43.1 µM (inactive) | 74 µM (inactive) | 25.7 µM (inactive) | 22 µM | 27.4 µM (inactive) | 32.3 µM (inactive) | 35.8 µM (inactive) | 2.06 µM (inactive) | 34.4 µM (inactive) | 42.7 µM (inactive) | 39.5 µM (inactive) | 37.5 µM (inactive) | 20.7 µM (inactive) | 37.8 µM (inactive) | 44 µM (inactive) | 8.36 µM (inactive) | > 59.4 µM (inactive) | 30.3 µM (inactive)
COC(=O)c1sc2ncc3c(c2c1N)CCCCCC3 | > 100 µM (inactive) | > 100 µM (inactive) | > 100 µM (inactive) | > 100 µM (inactive) | > 100 µM | > 100 µM (inactive) | > 100 µM (inactive) | > 100 µM (inactive) | > 100 µM (inactive) | > 100 µM (inactive) | > 100 µM (inactive) | > 100 µM (inactive) | > 100 µM (inactive) | > 100 µM (inactive) | > 100 µM (inactive) | > 100 µM (inactive) | > 100 µM (inactive) | > 100 µM (inactive) | > 100 µM (inactive)
Oc1c2cccc1Cc1cccc3c1OCCOCCOCCOCCOc1c(cccc1Cc1cccc(c1O)C3)C2 | > 100 µM (inactive) | > 100 µM (inactive) | > 100 µM (inactive) | 7.43 µM (inactive) | > 100 µM | 54.3 µM (inactive) | > 100 µM (inactive) | 89.7 µM (inactive) | > 100 µM (inactive) | 39.3 µM (inactive) | > 100 µM (inactive) | > 100 µM (inactive) | 9.29 µM (inactive) | 94.6 µM (inactive) | > 100 µM (inactive) | > 100 µM (inactive) | 2.06 µM (inactive) | > 100 µM (inactive) | 26.7 µM (inactive)
CCCCCCCCCCCOCCC1C(C(C)OCCN2CCCC2)OC2OC(C)(C)OC21 (stereo not given) | 2.62 µM (inactive) | 5.43 µM (inactive) | 4.47 µM (inactive) | 1.82 µM (inactive) | 2.04 µM | 1.82 µM (inactive) | 0.681 µM (active) | 1.85 µM (inactive) | 1.68 µM (inactive) | 3.41 µM (inactive) | 3.98 µM (inactive) | 4.59 µM (inactive) | 2.32 µM (inactive) | 2.07 µM (inactive) | 1.82 µM (inactive) | 4.24 µM (inactive) | 0.46 µM (active) | 2.37 µM (inactive) | 1.81 µM (inactive)
Cc1cnc(-c2c[nH]c3ccccc23)nc1-c1c[nH]c2ccccc12 | 3.58 µM (inactive) | 6.73 µM (inactive) | 6.21 µM (inactive) | 4.56 µM (inactive) | 5.81 µM | 4.18 µM (inactive) | 3.78 µM (inactive) | 2.31 µM (inactive) | 4.2 µM (inactive) | 7.67 µM (inactive) | 5.2 µM (inactive) | 15.9 µM (inactive) | 3.29 µM (inactive) | 11.7 µM (inactive) | 6.97 µM (inactive) | 11.2 µM (inactive) | 11.3 µM (inactive) | 5.31 µM (inactive) | 4.27 µM (inactive)
COc1ccc(C(=O)/C=C/c2ccc(OCCCCCCCCCCOc3ccc(/C=C/C(=O)c4ccc(OC)c(OC)c4)cc3)cc2)c(OC)c1 | > 100 µM (inactive) | > 100 µM (inactive) | > 100 µM (inactive) | > 100 µM (inactive) | > 100 µM | > 100 µM (inactive) | > 100 µM (inactive) | > 100 µM (inactive) | > 100 µM (inactive) | > 100 µM (inactive) | > 100 µM (inactive) | > 100 µM (inactive) | > 100 µM (inactive) | > 100 µM (inactive) | > 100 µM (inactive) | > 100 µM (inactive) | > 100 µM (inactive) | > 100 µM (inactive) | > 100 µM (inactive)
CCOC(=O)c1sc2c(c1OC(=O)c1cccs1)c(=O)n(-c1ccccc1)c(=S)n2-c1ccccc1 | 10.6 µM (inactive) | 20.5 µM (inactive) | 36.9 µM (inactive) | 5.3 µM (inactive) | 14 µM | 3.9 µM (inactive) | 16.1 µM (inactive) | 14.9 µM (inactive) | 10.7 µM (inactive) | 11.1 µM (inactive) | 11.7 µM (inactive) | 29.6 µM (inactive) | 53.2 µM (inactive) | 16.7 µM (inactive) | 13.5 µM (inactive) | 18.2 µM (inactive) | 0.0151 µM (active) | 25 µM (inactive) | 15.3 µM (inactive)
COc1ccc(/C=C(/C)[N+](=O)[O-])cc1 | 1.26 µM (inactive) | 2.36 µM (inactive) | 2.13 µM (inactive) | 1.75 µM (inactive) | 2.28 µM | 3.1 µM (inactive) | 1.67 µM (inactive) | 3.24 µM (inactive) | 1.37 µM (inactive) | 3.41 µM (inactive) | 3.09 µM (inactive) | 3.15 µM (inactive) | 6.84 µM (inactive) | 1.72 µM (inactive) | 2.48 µM (inactive) | 5.98 µM (inactive) | 0.419 µM (active) | 1.82 µM (inactive) | 1.68 µM (inactive)
CC1=NN(C(=O)CC(=O)Nc2ccccc2C)C(=O)C1/N=N\c1ccc(S(=O)(=O)c2ccc(/N=N/C3C(=O)N(C(=O)CC(=O)Nc4ccccc4C)N=C3C)cc2)cc1 (stereo not given) | > 100 µM (inactive) | > 100 µM (inactive) | > 100 µM (inactive) | > 100 µM (inactive) | > 100 µM | > 100 µM (inactive) | > 100 µM (inactive) | > 100 µM (inactive) | > 100 µM (inactive) | > 100 µM (inactive) | > 100 µM (inactive) | > 100 µM (inactive) | > 100 µM (inactive) | > 100 µM (inactive) | 62.2 µM (inactive) | > 100 µM (inactive) | > 100 µM (inactive) | > 100 µM (inactive) | > 100 µM (inactive)
O=c1oc2ccccc2cc1-c1csc(Nc2cc(Cl)cc(Cl)c2)n1 | 2.27 µM (inactive) | 31.2 µM (inactive) | > 55.6 µM (inactive) | 3.6 µM (inactive) | > 100 µM | 2.85 µM (inactive) | > 27.5 µM (inactive) | 4.66 µM (inactive) | > 43 µM (inactive) | 6.59 µM (inactive) | 1.79 µM (inactive) | 12.8 µM (inactive) | 6.35 µM (inactive) | 2.28 µM (inactive) | > 56.1 µM (inactive) | > 34.6 µM (inactive) | > 20 µM (inactive) | 20.6 µM (inactive) | 52.5 µM (inactive)
Fc1ccc(Oc2nc3ccc(C(F)(F)F)cc3nc2-c2ccccc2)cc1 | 61.7 µM (inactive) | > 100 µM (inactive) | > 100 µM (inactive) | 85.1 µM (inactive) | > 100 µM | 32.1 µM (inactive) | > 100 µM (inactive) | > 100 µM (inactive) | 46 µM (inactive) | > 100 µM (inactive) | 60.5 µM (inactive) | > 100 µM (inactive) | 37.7 µM (inactive) | 30.8 µM (inactive) | 68.1 µM (inactive) | 81.5 µM (inactive) | 24.3 µM (inactive) | 51.2 µM (inactive) | 39.8 µM (inactive)
CC(C)(C)c1ccc(OC(=O)Nc2ccc(O)c(C(=O)O)c2)cc1 | > 100 µM (inactive) | > 100 µM (inactive) | > 100 µM (inactive) | > 100 µM (inactive) | > 100 µM | > 100 µM (inactive) | > 100 µM (inactive) | > 100 µM (inactive) | > 100 µM (inactive) | > 100 µM (inactive) | > 100 µM (inactive) | > 100 µM (inactive) | > 100 µM (inactive) | > 100 µM (inactive) | > 100 µM (inactive) | > 100 µM (inactive) | > 100 µM (inactive) | > 100 µM (inactive) | > 100 µM (inactive)
